In the NIST ThermoML archive (doi:10.1016/j.jct.2012.01.008):
± gives the expanded uncertainty stated by the source.

Assay: xn = mol fraction of the nth substance listed
Conditions: Liquid, Vibrating tube method

CCC[N+]1(C)CCCCC1.O=S(=O)([N-]S(=O)(=O)C(F)(F)F)C(F)(F)F + CC(=O)c1ccccc1
mass density [kg/m3]
Conditions	100 kPa	10000 kPa	15000 kPa	20000 kPa	25000 kPa	30000 kPa	35000 kPa	40000 kPa	45000 kPa	50000 kPa
298.15 K, x2 = 0.1024	1393.3 ± 0.6	1399.9 ± 0.7	1402.9 ± 0.8	1406 ± 0.9	1408.8 ± 1	1411.6 ± 1.1	1414.3 ± 1.2	1417.1 ± 1.2	1419.8 ± 1.3	1422.4 ± 1.4
298.15 K, x2 = 0.2007	1376 ± 0.6	1382.5 ± 0.7	1385.4 ± 0.8	1388.5 ± 0.9	1391.3 ± 0.9	1394.1 ± 1	1396.8 ± 1.1	1399.5 ± 1.2	1402.2 ± 1.3	1404.8 ± 1.4
298.15 K, x2 = 0.3001	1355.5 ± 0.5	1361.8 ± 0.7	1364.8 ± 0.8	1367.9 ± 0.8	1370.7 ± 0.9	1373.5 ± 1	1376.2 ± 1.1	1379 ± 1.1	1381.7 ± 1.2	1384.3 ± 1.3
298.15 K, x2 = 0.4001	1331.8 ± 0.5	1338 ± 0.7	1341 ± 0.7	1344.1 ± 0.8	1346.9 ± 0.9	1349.7 ± 0.9	1352.4 ± 1	1355.1 ± 1.1	1357.8 ± 1.2	1360.4 ± 1.2
298.15 K, x2 = 0.5008	1303.8 ± 0.5	1309.9 ± 0.6	1312.8 ± 0.7	1315.8 ± 0.7	1318.5 ± 0.8	1321.3 ± 0.9	1324 ± 0.9	1326.6 ± 1	1329.3 ± 1.1	1331.8 ± 1.2
298.15 K, x2 = 0.6001	1270.5 ± 0.5	1276.6 ± 0.6	1279.5 ± 0.6	1282.5 ± 0.7	1285.2 ± 0.8	1287.9 ± 0.8	1290.5 ± 0.9	1293.2 ± 0.9	1295.7 ± 1	1298.2 ± 1.1
298.15 K, x2 = 0.7003	1229.4 ± 0.5	1235.5 ± 0.5	1238.3 ± 0.6	1241.2 ± 0.6	1243.9 ± 0.7	1246.5 ± 0.7	1249.1 ± 0.8	1251.7 ± 0.8	1254.2 ± 0.9	1256.7 ± 0.9
298.15 K, x2 = 0.7999	1178 ± 0.4	1184 ± 0.5	1186.8 ± 0.5	1189.7 ± 0.6	1192.3 ± 0.6	1194.9 ± 0.6	1197.5 ± 0.7	1200.1 ± 0.7	1202.6 ± 0.8	1205 ± 0.8
298.15 K, x2 = 0.8998	1111.5 ± 0.4	1117.3 ± 0.4	1120 ± 0.4	1122.7 ± 0.5	1125.2 ± 0.5	1127.8 ± 0.5	1130.4 ± 0.5	1133 ± 0.6	1135.4 ± 0.6	1137.8 ± 0.6
318.15 K, x2 = 0.1024	1376.7 ± 0.6	1383.4 ± 0.7	1386.8 ± 0.8	1389.8 ± 0.9	1392.8 ± 1	1395.8 ± 1	1398.8 ± 1.1	1401.6 ± 1.2	1404.5 ± 1.3	1407.1 ± 1.4
318.15 K, x2 = 0.2007	1359 ± 0.5	1365.7 ± 0.7	1369.1 ± 0.8	1372.1 ± 0.8	1375.1 ± 0.9	1378.1 ± 1	1381.1 ± 1.1	1383.9 ± 1.2	1386.7 ± 1.2	1389.3 ± 1.3
318.15 K, x2 = 0.3001	1338.4 ± 0.5	1345.1 ± 0.7	1348.5 ± 0.7	1351.5 ± 0.8	1354.5 ± 0.9	1357.5 ± 1	1360.5 ± 1	1363.3 ± 1.1	1366.1 ± 1.2	1368.7 ± 1.3
318.15 K, x2 = 0.4001	1314.6 ± 0.5	1321.3 ± 0.6	1324.7 ± 0.7	1327.7 ± 0.8	1330.7 ± 0.8	1333.7 ± 0.9	1336.5 ± 1	1339.3 ± 1	1342.1 ± 1.1	1344.8 ± 1.2
318.15 K, x2 = 0.5008	1286.6 ± 0.5	1293.1 ± 0.6	1296.5 ± 0.7	1299.5 ± 0.7	1302.4 ± 0.8	1305.4 ± 0.8	1308.2 ± 0.9	1310.9 ± 1	1313.7 ± 1	1316.3 ± 1.1
318.15 K, x2 = 0.6001	1253.2 ± 0.5	1259.8 ± 0.6	1263.1 ± 0.6	1266.1 ± 0.7	1269 ± 0.7	1271.9 ± 0.8	1274.8 ± 0.8	1277.4 ± 0.9	1280.2 ± 1	1282.8 ± 1
318.15 K, x2 = 0.7003	1212 ± 0.4	1218.5 ± 0.5	1221.8 ± 0.6	1224.7 ± 0.6	1227.7 ± 0.7	1230.6 ± 0.7	1233.4 ± 0.8	1236 ± 0.8	1238.7 ± 0.9	1241.3 ± 0.9
318.15 K, x2 = 0.7999	1160.6 ± 0.4	1167.1 ± 0.5	1170.2 ± 0.5	1173.1 ± 0.5	1176 ± 0.6	1178.8 ± 0.6	1181.7 ± 0.6	1184.2 ± 0.7	1186.9 ± 0.7	1189.5 ± 0.8
318.15 K, x2 = 0.8998	1093.9 ± 0.4	1100.3 ± 0.4	1103.4 ± 0.4	1106.3 ± 0.4	1109.2 ± 0.5	1112 ± 0.5	1114.9 ± 0.5	1117.4 ± 0.5	1120.1 ± 0.6	1122.6 ± 0.6
348.15 K, x2 = 0.1024	1350.8 ± 0.5	1357.9 ± 0.7	1361.5 ± 0.8	1365.1 ± 0.8	1368.5 ± 0.9	1371.7 ± 1	1374.9 ± 1.1	1377.9 ± 1.1	1381 ± 1.2	1383.8 ± 1.3
348.15 K, x2 = 0.2007	1333 ± 0.5	1340.3 ± 0.7	1344 ± 0.7	1347.5 ± 0.8	1350.9 ± 0.9	1354.1 ± 0.9	1357.4 ± 1	1360.4 ± 1.1	1363.4 ± 1.2	1366.2 ± 1.3
348.15 K, x2 = 0.3001	1312.4 ± 0.5	1319.7 ± 0.6	1323.4 ± 0.7	1327 ± 0.8	1330.4 ± 0.8	1333.7 ± 0.9	1336.8 ± 1	1339.9 ± 1.1	1342.8 ± 1.1	1345.6 ± 1.2
348.15 K, x2 = 0.4001	1288.5 ± 0.5	1295.8 ± 0.6	1299.5 ± 0.7	1303 ± 0.7	1306.4 ± 0.8	1309.6 ± 0.9	1312.8 ± 0.9	1315.8 ± 1	1318.8 ± 1.1	1321.6 ± 1.1
348.15 K, x2 = 0.5008	1260.2 ± 0.5	1267.6 ± 0.6	1271.2 ± 0.6	1274.6 ± 0.7	1277.9 ± 0.7	1281.2 ± 0.8	1284.3 ± 0.9	1287.3 ± 0.9	1290.3 ± 1	1293.1 ± 1
348.15 K, x2 = 0.6001	1226.6 ± 0.5	1234.1 ± 0.5	1237.7 ± 0.6	1241.1 ± 0.6	1244.4 ± 0.7	1247.7 ± 0.7	1250.8 ± 0.8	1253.8 ± 0.8	1256.8 ± 0.9	1259.6 ± 1
348.15 K, x2 = 0.7003	1185.5 ± 0.4	1193 ± 0.5	1196.6 ± 0.5	1199.9 ± 0.6	1203.2 ± 0.6	1206.5 ± 0.7	1209.6 ± 0.7	1212.6 ± 0.7	1215.6 ± 0.8	1218.4 ± 0.8
348.15 K, x2 = 0.7999	1134.2 ± 0.4	1141.7 ± 0.4	1145.2 ± 0.5	1148.6 ± 0.5	1151.8 ± 0.5	1155.1 ± 0.6	1158.2 ± 0.6	1161.2 ± 0.6	1164.2 ± 0.7	1167 ± 0.7
348.15 K, x2 = 0.8998	1067.9 ± 0.4	1075.4 ± 0.4	1078.9 ± 0.4	1082.1 ± 0.4	1085.4 ± 0.4	1088.6 ± 0.5	1091.7 ± 0.5	1094.7 ± 0.5	1097.7 ± 0.5	1100.4 ± 0.5
